RP-LC retention time data for 58 compounds are collected here from the METLIN SMRT retention time set (Domingo-Almenara et al. 2019).

A short description of this series: gradient 5% acetonitrile 3 min, to 50% in 2 min, to 85% in 15 min, held 3 min, 100 µL/min. The following applies: column: Zorbax Extend-C18 2.1 x 50 mm; eluents: water / acetonitrile, 0.1% formic acid. An outline of the steps:
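In both positive and negative ionization mode, a quadrupole time-of-flight mass spectrometer coupled to HPLC analyzed pure standards run in mixtures of ~100 molecules. The Zorbax Extend-C18 column (2.1 × 50 mm, 1.8 μm) was operated at 100 μL/min with water and acetonitrile, each containing 0.1% formic acid. The dead volume was 40 μL and the dwell volume 900 μL. Retention time came from adduct peaks that were computationally picked and individually inspected by hand.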
`COCCCNC(=O)C1(c2ccc(NC(=O)c3ccc(Br)cc3)cc2)CCC1` showed an RP-LC retention time of 820 s.

For the compound `COc1ccc(-c2nc(N3CCC(C)CC3)c3ccccc3n2)cc1`, the RP-LC retention time is 860 s.

`O=C(c1ccc(F)cc1)N1CCC(CCNS(=O)(=O)c2cc(F)ccc2F)CC1` had an RP-LC retention time of 870 s.

With `CCOc1ccc(Cn2c(=O)c3sccc3n(Cc3nc(-c4cccc(C)c4)no3)c2=O)cc1`, the RP-LC retention time came out at 1180 s.

In turn, `COc1cc(OC)c(NS(=O)(=O)c2c(C)sc(C)c2-c2cc(C(F)(F)F)on2)cc1Cl` came in with an RP-LC retention time of 1170 s.

The compound `CC(C)CNC(=O)N1CCCC(c2nn[nH]n2)C1` (stereo not drawn) yielded an RP-LC retention time of 617 s.

For `O=C(Cn1cnc2cc3c(cc21)OCCO3)NCc1ccc2c(c1)OCCCO2`, the RP-LC retention time stood at 596 s.

`CCOC(=O)C1CCCN(C(=O)c2csc3nc(-c4ccc(F)cc4)cn23)C1` (stereo not drawn) gave an RP-LC retention time of 854 s.

Compound `CC(=O)N1CCC(C(=O)NCc2ccccc2)(N(C(=O)c2ccc(C)cc2)C2CCCC2)CC1` returned an RP-LC retention time of 942 s.

In turn, `COc1cc(-c2noc(Cn3ncn4nc(-c5cc(C)ccc5C)cc4c3=O)n2)cc(OC)c1OC` showed an RP-LC retention time of 1140 s.

In turn, `COc1cccc(NC(=O)C2CCN(S(=O)(=O)c3cc(C(=O)N4CCOCC4)cs3)CC2)c1` yielded an RP-LC retention time of 747 s.

On to `CCn1cnc2ccc(-c3noc(-c4ccc(F)cc4)n3)cc21`, for which the RP-LC retention time turned out to be 780 s.

In turn, `COc1ccc(S(=O)(=O)N2CCCC(C)(C(=O)NCc3cccc(OC)c3)C2)cc1` (stereo not drawn) displayed an RP-LC retention time of 903 s.

With `O=C(c1cccnc1)N1CCC2(CC1)Nc1cc(F)ccc1-n1cccc12`, the RP-LC retention time came to 792 s.

For `COc1ccc(CNC(=O)Cn2c(C(F)(F)F)nc3cc4c(cc32)OCCO4)cc1OC`, the RP-LC retention time came out at 764 s.

In turn, `CC(C)N1C(=O)C(C)(C(=O)N2CCN(c3ccccc3F)CC2)Oc2cccnc21` (stereo not drawn) registered an RP-LC retention time of 1130 s.

`CC(C)Cc1ccc(S(=O)(=O)N2CCCC2c2nc(-c3ccc(F)cc3)no2)cc1` (stereo not drawn) displayed an RP-LC retention time of 1360 s.

For the compound `COc1ccc(OC)c(CNC(=O)Cc2csc3nc(-c4ccccc4)cn23)c1`, the RP-LC retention time was 779 s.

As for `CCOCC(=O)N1CCC2(CC1)CC(O)(CC)CCO2` (stereo not drawn), the RP-LC retention time came to 614 s.

For `Cc1oc(-c2[nH]ncc2C(=O)N(C)C)cc1S(=O)(=O)Nc1ccc(F)c(F)c1`, the RP-LC retention time stood at 890 s.

For the compound `COc1ccc(CN(Cc2ccccc2)Cc2cc(=O)n3ccc(C)cc3n2)cc1OC`, the RP-LC retention time stood at 662 s.

As to `COc1ccc(-c2ccc(=O)n(Cc3nc(-c4ccccn4)no3)n2)cc1`, the RP-LC retention time is 780 s.

As to `Cc1ccn2cc(CNS(=O)(=O)c3ccc(-c4ccccc4)cc3)nc2c1`, the RP-LC retention time came to 588 s.

In turn, `COc1ccc(-c2nc3cc(C)ccn3c2NC(=O)COc2ccc(Cl)cc2)cc1OC` came in with an RP-LC retention time of 714 s.

Regarding `Cc1nc(C2CCOCC2)n(C2CCN(S(=O)(=O)c3ccc(C(C)(C)C)cc3)C2)n1` (stereo not drawn), the RP-LC retention time turned out to be 871 s.

In the case of `Cc1cc(C)n(Cc2nc(-c3ccc(NC(=O)CCc4ccccc4)cc3)oc2C)n1`, the RP-LC retention time was 944 s.

On to `CCn1cnc(S(=O)(=O)N2CCC(C(=O)Nc3cc(C)cc(C)c3)CC2)c1`, for which the RP-LC retention time amounted to 797 s.

`CCn1cnc(S(=O)(=O)N2CCC(C(=O)NCc3ccccc3Cl)CC2)c1` displayed an RP-LC retention time of 720 s.

On to `O=C(c1cc2ccccc2o1)N1CC(c2nc(-c3cccnc3)no2)C1`, for which the RP-LC retention time turned out to be 709 s.

The compound `O=C(NC1CCCCC1)c1nc(-c2cn(-c3ccc(F)cc3)nn2)no1` had an RP-LC retention time of 938 s.

In turn, `COc1ccc(Nc2c(-c3ccc(N4CCOCC4)cc3)nc3ncccn23)cc1OC` displayed an RP-LC retention time of 619 s.

`COc1cc(NC(=O)c2cn3c(n2)CN(CC(C)C)CC3)cc(OC)c1` registered an RP-LC retention time of 818 s.

`Cc1ccccc1N1CCN(c2ncc(C(=O)O)c(C)n2)CC1` had an RP-LC retention time of 1040 s.

`CCN(CC)C(=O)C1CCN(S(=O)(=O)c2ccc3c(c2)sc(=O)n3C(C)C)CC1` showed an RP-LC retention time of 873 s.

`CC(C)NC(=O)C1CCCN(c2nc3ncn(CC(=O)Nc4ccccc4Cl)c(=O)c3s2)C1` (stereo not drawn) registered an RP-LC retention time of 741 s.

`CC(C)CNC(=O)N1CCC(c2noc(-c3ccccc3)n2)C1` (stereo not drawn) showed an RP-LC retention time of 846 s.

In turn, `Cc1nn2c(CNS(=O)(=O)c3ccc(F)c(C)c3)c(-c3ccccc3)nc2s1` returned an RP-LC retention time of 898 s.

Turning to `Cc1cc(C)cc(OCc2nc(CCN(C)C(=O)c3ccco3)no2)c1`, the RP-LC retention time stood at 873 s.

The compound `O=C(Cc1cccs1)Nc1ccc2c(N3CCCCC3)ncnc2c1` showed an RP-LC retention time of 594 s.

With `CCOC(=O)c1ccccc1NC(=O)N(Cc1cc(=O)[nH]c2ccccc12)CC(C)C`, the RP-LC retention time was determined as 1090 s.

In turn, `CCN1CCN(C(=O)CC2CCN(C(=O)c3[nH]c(C)c(C(=O)OC(C)C)c3C)CC2)CC1` came in with an RP-LC retention time of 612 s.

Compound `O=C(CCCCCCSc1ccc2ccccc2c1)NO` registered an RP-LC retention time of 863 s.

The compound `O=C(CN1C(=O)c2ccccc2C1=O)Nc1nnc(-c2ccc3c(c2)OCCO3)o1` came in with an RP-LC retention time of 678 s.

The compound `COc1ccc(-c2cn3c(CC(=O)Nc4cccc(Cl)c4)csc3n2)cc1OC` had an RP-LC retention time of 791 s.

Take `Cc1ccc(Nc2c(-c3ccc(Cl)cc3)nc3cnccn23)cc1Cl`: the RP-LC retention time stood at 1150 s.

`O=C(Cc1ccc(NS(=O)(=O)c2ccc3c(c2)CCCC3)cc1)NC1CC1` registered an RP-LC retention time of 766 s.

In turn, `CCNC(=O)Nc1ccc2c(c1)CN(S(=O)(=O)CC)CCO2` registered an RP-LC retention time of 660 s.

On to `CCOC(=O)c1cnc(N2CCN(c3ccc(Cl)cc3)CC2)nc1C`, for which the RP-LC retention time came out at 1380 s.

Compound `CC1(C(=O)NC2CCCCCCC2)CN(S(C)(=O)=O)CC(=O)N1c1cccc(F)c1` (stereo not drawn) came in with an RP-LC retention time of 919 s.

Take `Cc1nc(-c2ccccc2)cc2nn(CC(=O)N3CCOCC3)c(=O)n12`: the RP-LC retention time worked out at 700 s.

Consider `COc1cc(Nc2nc(C(=O)NCCN(C)C)cc3occc23)cc(OC)c1OC`, for which the RP-LC retention time was found to be 629 s.

`CN1CCN(c2ccc(Nc3cc(-c4cccc(-n5ccc6cc(C7CC7)cc(F)c6c5=O)c4CO)cn(C)c3=O)nc2)CC1` showed an RP-LC retention time of 702 s.

In the case of `CC(=O)N1CC(c2nnc(C(C)C)o2)C2(CCOCC2)C1` (stereo not drawn), the RP-LC retention time worked out at 571 s.

As to `Cn1cc(-c2ccncc2)cc1C(=O)N1CCN(c2ccccc2)CC1`, the RP-LC retention time stood at 624 s.

`COCCc1noc(COC2CCN(C(=O)C3CCCO3)CC2)n1` (stereo not drawn): the RP-LC retention time worked out at 618 s.

`COc1ccc(CNC(=O)Cc2csc3nc(-c4ccc(OC)c(OC)c4)cn23)cc1OC`: the RP-LC retention time is 648 s.

In the case of `CC(=O)Nc1ccc(NC(=O)c2cc3sccc3n2Cc2ccc(Cl)cc2)cc1`, the RP-LC retention time is 965 s.

Consider `COc1ccc(-n2ccnc(NC(=O)Nc3ccc(C)c(C)c3)c2=O)cc1OC`, for which the RP-LC retention time is 955 s.
